Assay results published in patent US6352703B1, “Compositions and methods for detecting and killing termites” (Board of Supervisors of Louisiana State University and …, priority 1997, dated 2002).

Key:
[1] = test system: ants; assay: Killing of ants; settings: in vivo
[2] = test system: Mucor spp. fungus; assay: Antifungal filter paper disk test, trial 2 (cornmeal agar, sealed plates); format: cell-based
Protocol: A second trial was conducted with filter papers treated with naphthalene, BHT, or 2,6-di-t-butyl-4-methyl-phenol (“DBP”). A fungal suspension was prepared as in the first trial. Spore concentrations were determined with a counting chamber (Petroff-Hauser, Hauser Scientific Partnership, Horsham, Pa.). Concentrations were adjusted to approximately 10^7 spores/mL. In the first trial fungus grew on SDA quickly, forming a thick mat that soon filled the entire petri dish. Therefore, in the second trial cornmeal agar (CMA, Difco Laboratories, Detroit, Mich.) was used to slow the growth of the fungus during the six-day observation period. A thin layer of the spore suspension was spread over the surface of each of 24 cornmeal agar plates using a turntable and bent glass rod, as previously described.
(§1) Filter paper disks were treated with naphthalene, BHT, or DBP at rates of 2 μg, 20 μg, or 200 μg, prepared as in the first trial. On each plate were placed four filter paper disks spaced equidistant from one another (one disk containing each of the three application rates of one of the test compounds, and one disk containing only the hexane control). Each plate was then covered and sealed with parafilm to reduce the release of volatile compounds. The concentration of naphthalene in the headspace was 0.04 μg/cm^3; except in trial 3 below, in which the concentration was 34.6 μg/cm^3, about 700 times the concentration we have observed in termite nest materials. The growth of fungus on and around each filter paper disk was recorded three, four, and five days after treatment. The experiment was then repeated, increasing the rates of naphthalene, BHT, and DBP to 200 μg, 600 μg, and 1000 μg (trial 3).
(§2) Fungal growth on each filter paper disk was recorded by making tracings of the disks, inking in areas with visible fungal growth. The fraction of each disk covered by fungus was measured by making photocopy enlargements of these drawings, cutting out the enlarged disks, weighing the entire circle, cutting out the inked areas of the circle (corresponding to fungal growth), and weighing the latter. The fraction of each circle covered with fungus was then calculated as the ratio of these weights. (The weight of the photocopy toner was negligible.)
(§3) Coverage of filter paper disks was analyzed by the ANOVA procedure (SAS Institute, Version 6.11, Cary, N.C.). Tukey's Studentized Range (HSD) Test was used for comparison of mean separations (α=0.05).

[3] = test system: Mucor spp. fungus; assay: Antifungal filter paper disk test, trial 1 (Sabouraud dextrose agar); format: cell-based
Protocol: Mucor was isolated from a Formosan termite nest in our laboratory, a nest originally collected from a cottonwood tree in New Orleans, La. The fungus comprised a white mat that covered large areas of the nest that had been exposed to air and water. Fungus was scraped from the nest and suspended in distilled, de-ionized water with a Pasteur pipette. This suspension was streaked on Sabouraud dextrose agar (“SDA”) (Difco Laboratories, Detroit, Mich.) in 100×15 mm plates containing 20 mL SDA. Pure cultures were obtained from individual colonies on these plates as needed. Cultures were maintained on SDA plates in a 27° C. incubator without light until used.
Filter paper disks (Whatman #1, 1.5 cm) were treated with naphthalene, butylated hydroxytoluene (BHT), dioctyl phthalate, or adipic dioctyl ester, at rates of 2 μg, 20 μg, or 200 μg, dissolved in 100 μL hexane. Controls were treated with hexane alone. For each treatment, just prior to testing for antifungal properties, 1 mL of the hexane solution and ten filter paper disks were placed in a vial, and N2 was used to evaporate the hexane.
A suspension was prepared by scraping Mucor conidia (spores) from the culture plates, and mixing into distilled, deionized water with a Pasteur pipette. A thin layer of this suspension was spread over the surface of each of 130 SDA plates by placing each plate onto an inoculation turntable (Fisher Scientific, Hampton, N.H.), pipetting 0.2 mL of the suspension into the center of the plate, spinning the turntable, and spreading the suspension onto the agar with a bent glass rod. The plates were allowed to dry for two hours. A treated filter paper disk was then placed in the center of each plate (10 plates/treatment), and the plates were incubated at 27° C. The extent to which each filter paper disk was covered by fungus was determined by visual inspection (by the method described in greater detail below) after four, five, and six days.
as §2, §3

[4] = test system: Mucor spp. fungus; assay: Antifungal filter paper disk test, trial 3 (cornmeal agar, sealed plates, increased rates); format: cell-based
Protocol: A second trial was conducted with filter papers treated with naphthalene, BHT, or 2,6-di-t-butyl-4-methyl-phenol (“DBP”). A fungal suspension was prepared as in the first trial. Spore concentrations were determined with a counting chamber (Petroff-Hauser, Hauser Scientific Partnership, Horsham, Pa.). Concentrations were adjusted to approximately 10^7 spores/mL. In the first trial fungus grew on SDA quickly, forming a thick mat that soon filled the entire petri dish. […] A thin layer of the spore suspension was spread over the surface of each of 24 cornmeal agar plates using a turntable and bent glass rod, as previously described.
as §1, with “The growth of fungus on and around each filter paper disk was recorded three, four, and five days after treatment.” left out
as §2, §3

[5] = test system: imported red fire ant, Solenopsis invicta Buren; assay: Effect of naphthalene on ants (tolerance comparison); format: in vivo; settings: naphthalene concentrations causing no visible effect on termites
[6] = test system: C. formosanus; settings: in vivo
[7] = test system: Formosan termites; assay: Feeding bioassay; format: in vivo, Coptotermes formosanus; settings: ergosterol standard
Protocol: Sterols identified include 3-β-dihydrocholesterol; (24s)-stigmast-5-en-3-ol; and methyl(3-β,5-α)ergostan-3-ol. […] The bioassay was conducted according to the general procedures of U.S. application Ser. No. 08/243,950, filed May 17, 1994.

[8] = trial 2, 0 μg disk (hexane only) on the same sealed plate as the compound's treated disks
[9] = trial 3, 0 μg disk (hexane only) on the same sealed plate as the compound's treated disks

SMILES | Fraction Covered, Day 3 (mean percentage of filter paper disk surface covered by fungus) [2, 8] | Fraction Covered, Day 4 (mean percentage of filter paper disk surface covered by fungus) [2, 8] | Fraction Covered, Day 5 (mean percentage of filter paper disk surface covered by fungus) [2, 8] | Fraction Covered, Day 3 (mean percentage of filter paper disk surface covered by fungus) ([2]; trial 2, rate 2 μg per disk) | Fraction Covered, Day 4 (mean percentage of filter paper disk surface covered by fungus) ([2]; trial 2, rate 2 μg per disk) | Fraction Covered, Day 5 (mean percentage of filter paper disk surface covered by fungus) ([2]; trial 2, rate 2 μg per disk) | Fraction Covered, Day 3 (mean percentage of filter paper disk surface covered by fungus) ([2]; trial 2, rate 20 μg per disk) | Fraction Covered, Day 4 (mean percentage of filter paper disk surface covered by fungus) ([2]; trial 2, rate 20 μg per disk) | Fraction Covered, Day 5 (mean percentage of filter paper disk surface covered by fungus) ([2]; trial 2, rate 20 μg per disk) | Fraction Covered, Day 3 (mean percentage of filter paper disk surface covered by fungus) ([2]; trial 2, rate 200 μg per disk) | Fraction Covered, Day 4 (mean percentage of filter paper disk surface covered by fungus) ([2]; trial 2, rate 200 μg per disk) | Fraction Covered, Day 5 (mean percentage of filter paper disk surface covered by fungus) ([2]; trial 2, rate 200 μg per disk) | Fraction Covered, Day 4 (mean percentage of filter paper disk surface covered by fungus) ([3]; trial 1, rate 2 μg per disk) | Fraction Covered, Day 5 (mean percentage of filter paper disk surface covered by fungus) ([3]; trial 1, rate 2 μg per disk) | Fraction covered, Day 6 (mean percentage of filter paper disk surface covered by fungus) ([3]; trial 1, rate 2 μg per disk) | Fraction Covered, Day 4 (mean percentage of filter paper disk surface covered by fungus) ([3]; trial 1, rate 20 μg per disk) | Fraction Covered, Day 5 (mean percentage of filter paper disk surface covered by fungus) ([3]; trial 1, rate 20 μg per disk) | Fraction covered, Day 6 (mean percentage of filter paper disk surface covered by fungus) ([3]; trial 1, rate 20 μg per disk) | Fraction Covered, Day 4 (mean percentage of filter paper disk surface covered by fungus) ([3]; trial 1, rate 200 μg per disk) | Fraction Covered, Day 5 (mean percentage of filter paper disk surface covered by fungus) ([3]; trial 1, rate 200 μg per disk) | further results
Cc1cc(C(C)(C)C)c(O)c(C(C)(C)C)c1 [BHT, butylated hydroxytoluene] | 93% | 94% | 96% | 85% | 90% | 90% | 93% | 95% | 98% | 95% | 99% | 100% | 70% | 85% | 92% | 27% | 65% | 76% | 28% | 56% | Effectiveness at killing ants compared with naphthalene [1]: even more effective than naphthalene at killing ants; Fraction covered, Day 6 (mean percentage of filter paper disk surface covered by fungus) ([3]; trial 1, rate 200 μg per disk): 93%; Fraction Covered, Day 3 (mean percentage of filter paper disk surface covered by fungus) [4, 9]: 59%; Fraction Covered, Day 4 (mean percentage of filter paper disk surface covered by fungus) [4, 9]: 100%; Fraction Covered, Day 5 (mean percentage of filter paper disk surface covered by fungus) [4, 9]: 100%; Fungal coverage of treated disks ([4]; trial 3, fourth day): ~100%; Fraction Covered, Day 3 (mean percentage of filter paper disk surface covered by fungus) ([4]; trial 3, rate 200 μg per disk): 30%; Fraction Covered, Day 4 (mean percentage of filter paper disk surface covered by fungus) ([4]; trial 3, rate 200 μg per disk): 96%; Fraction Covered, Day 5 (mean percentage of filter paper disk surface covered by fungus) ([4]; trial 3, rate 200 μg per disk): 95%; Fraction Covered, Day 3 (mean percentage of filter paper disk surface covered by fungus) ([4]; trial 3, rate 600 μg per disk): 53%; Fraction Covered, Day 4 (mean percentage of filter paper disk surface covered by fungus) ([4]; trial 3, rate 600 μg per disk): 97%; Fraction Covered, Day 5 (mean percentage of filter paper disk surface covered by fungus) ([4]; trial 3, rate 600 μg per disk): 100%; Fraction Covered, Day 3 (mean percentage of filter paper disk surface covered by fungus) ([4]; trial 3, rate 1000 μg per disk): 16%; Fraction Covered, Day 4 (mean percentage of filter paper disk surface covered by fungus) ([4]; trial 3, rate 1000 μg per disk): 99%; Fraction Covered, Day 5 (mean percentage of filter paper disk surface covered by fungus) ([4]; trial 3, rate 1000 μg per disk): 100%; Coverage of filter paper versus the DBP or naphthalene treatments ([4]; trial 3, three days after treatment, P=0.0001): significantly greater
c1ccc2ccccc2c1 [Naphthalene, naphthalene] | 98% | 99% | 95% | 100% | 99% | 100% | 98% | 98% | 99% | 100% | 100% | 100% | 71% | 86% | 98% | 64% | 97% | 100% | 90% | 92% | Effect on ants [5]: paralyzed; Tolerance of C. formosanus to naphthalene compared with S. invicta [6]: significantly higher tolerance; Visible effect on termites [6]: no visible effect; Fraction covered, Day 6 (mean percentage of filter paper disk surface covered by fungus) ([3]; trial 1, rate 200 μg per disk): 100%; Inhibition of growth of the fungus, comparison among compounds ([4]; of the five compounds tested): most effective at inhibiting the growth of this fungus; Fraction Covered, Day 3 (mean percentage of filter paper disk surface covered by fungus) [4, 9]: 0%; Fraction Covered, Day 4 (mean percentage of filter paper disk surface covered by fungus) [4, 9]: 0%; Fraction Covered, Day 5 (mean percentage of filter paper disk surface covered by fungus) [4, 9]: 0%; Fungal growth on filter paper disks ([4]; trial 3, all naphthalene treatments (0-1000 μg)): no fungal growth; Fungal growth on treated disks ([4]; trial 3, eight days after treatment): still free of fungus; Fungal growth on treated disks ([4]; trial 3, fourth day): still no growth; Fraction Covered, Day 3 (mean percentage of filter paper disk surface covered by fungus) ([4]; trial 3, rate 200 μg per disk): 0%; Fraction Covered, Day 4 (mean percentage of filter paper disk surface covered by fungus) ([4]; trial 3, rate 200 μg per disk): 0%; Fraction Covered, Day 5 (mean percentage of filter paper disk surface covered by fungus) ([4]; trial 3, rate 200 μg per disk): 0%; Fraction Covered, Day 3 (mean percentage of filter paper disk surface covered by fungus) ([4]; trial 3, rate 600 μg per disk): 0%; Fraction Covered, Day 4 (mean percentage of filter paper disk surface covered by fungus) ([4]; trial 3, rate 600 μg per disk): 0%; Fraction Covered, Day 5 (mean percentage of filter paper disk surface covered by fungus) ([4]; trial 3, rate 600 μg per disk): 0%; Fraction Covered, Day 3 (mean percentage of filter paper disk surface covered by fungus) ([4]; trial 3, rate 1000 μg per disk): 0%; Fraction Covered, Day 4 (mean percentage of filter paper disk surface covered by fungus) ([4]; trial 3, rate 1000 μg per disk): 0%; Fraction Covered, Day 5 (mean percentage of filter paper disk surface covered by fungus) ([4]; trial 3, rate 1000 μg per disk): 0%
CC(C)[C@@H](C)/C=C/[C@@H](C)[C@H]1CC[C@H]2C3=CC=C4C[C@@H](O)CC[C@]4(C)[C@H]3CC[C@]12C [ergosterol] |  |  |  |  |  |  |  |  |  |  |  |  |  |  |  |  |  |  |  |  | Feeding stimulation [7]: stimulated the feeding
